Data reported in US20250154686A1, “COMPOUND LIBRARY” (CHUGAI SEIYAKU KABUSHIKI KAISHA, priority 2021, published 2025).

Molecular target: T1, Bcl-2 protein (Recombinant Human Bcl-2 Protein) (Homo sapiens, UniProt P10415)
T1 construct: purchased Novus Biologicals NBP2-34889
Test: AS-MS evaluation of binding of the Example 4 mixture library (1200 compounds/well) to Bcl-2, ASMS ratio (%)
Conditions: AS-MS, Example 4 mixture library; for ASMS ratio (%) n = 1: Bcl-2, replicate n = 1; for ASMS ratio (%) n = 2: Bcl-2, replicate n = 2
In short: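 Recombinant human Bcl-2 at 20 μM final was exposed to a 1200-member compound pool (20 nM per compound) in pH 7.4 Tris-HCl buffer containing NaCl, Tween-20 and DTT. After 1 h at 23 °C, protein–ligand complexes passed SEC spin columns; LC/MS signals were compared with protein-free standard and blank samples to give ASMS ratio.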

T1 sequence (P10415 whole entry): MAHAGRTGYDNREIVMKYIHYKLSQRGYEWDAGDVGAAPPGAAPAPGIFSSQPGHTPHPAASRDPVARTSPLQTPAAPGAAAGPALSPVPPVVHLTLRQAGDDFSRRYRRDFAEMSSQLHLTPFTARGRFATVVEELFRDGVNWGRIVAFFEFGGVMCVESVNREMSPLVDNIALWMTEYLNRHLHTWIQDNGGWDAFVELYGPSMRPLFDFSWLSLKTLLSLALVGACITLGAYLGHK

| SMILES | ASMS ratio (%) n = 1 | ASMS ratio (%) n = 2 |
| --- | --- | --- |
| CCOc1cccc(-c2cc(CN3CCN(c4ccc(C(=O)NS(=O)(=O)CCC(F)(F)F)cc4)CC3)cc(OC(F)(F)F)c2)c1 [Compound B2N063-01, 4-[4-[[3-(3-Ethoxyphenyl)-5-(trifluoromethoxy)phenyl]methyl]piperazin-1-yl]-N-(3,3,3-trifluoropropylsulfonyl)benzamide] | −0.3% | −3.8% |
| CCOc1cncc(-c2cc(CN3CCN(c4ccc(C(=O)NS(=O)(=O)CCC(F)(F)F)cc4)CC3)cc(OC(F)(F)F)c2)c1 [Compound B2N064-01, 4-[4-[[3-(5-Ethoxypyridin-3-yl)-5-(trifluoromethoxy)phenyl]methyl]piperazin-1-yl]-N-(3,3,3-trifluoropropylsulfonyl)benzamide] | 0.0% | 0.0% |
| CCOc1cccc(-c2ccc(CN3CCN(c4ccc(C(=O)NS(=O)(=O)CCC(F)(F)F)cc4)CC3)c3ccccc23)c1 [Compound B2N065-01, 4-[4-[[4-(3-Ethoxyphenyl)naphthalen-1-yl]methyl]piperazin-1-yl]-N-(3,3,3-trifluoropropylsulfonyl)benzamide] | 0.0% | 0.0% |
| CCOc1cncc(-c2ccc(CN3CCN(c4ccc(C(=O)NS(=O)(=O)CCC(F)(F)F)cc4)CC3)c3ccccc23)c1 [Compound B2N066-01, 4-[4-[[4-(5-Ethoxypyridin-3-yl)naphthalen-1-yl]methyl]piperazin-1-yl]-N-(3,3,3-trifluoropropylsulfonyl)benzamide] | 0.0% | 0.0% |
| CCOc1cccc(-c2csc(CN3CCN(c4ccc(C(=O)NS(=O)(=O)CCC(F)(F)F)cc4)CC3)c2)c1 [Compound B2N067-01, 4-[4-[[4-(3-Ethoxyphenyl)thiophen-2-yl]methyl]piperazin-1-yl]-N-(3,3,3-trifluoropropylsulfonyl)benzamide] | 0.0% | 0.0% |
| CCOc1cncc(-c2csc(CN3CCN(c4ccc(C(=O)NS(=O)(=O)CCC(F)(F)F)cc4)CC3)c2)c1 [Compound B2N068-01, 4-[4-[[4-(5-Ethoxypyridin-3-yl)thiophen-2-yl]methyl]piperazin-1-yl]-N-(3,3,3-trifluoropropylsulfonyl)benzamide] | 0.0% | 0.5% |
| CCOc1cccc(C#Cc2ccccc2CN2CCN(c3ccc(C(=O)NS(=O)(=O)CCC(F)(F)F)cc3)CC2)c1 [Compound B2N069-01, 4-[4-[[2-[2-(3-Ethoxyphenyl)ethynyl]phenyl]methyl]piperazin-1-yl]-N-(3,3,3-trifluoropropylsulfonyl)benzamide] | −1.8% | −1.5% |
| CCOc1cncc(C#Cc2ccccc2CN2CCN(c3ccc(C(=O)NS(=O)(=O)CCC(F)(F)F)cc3)CC2)c1 [Compound B2N070-01, 4-[4-[[2-[2-(5-Ethoxypyridin-3-yl)ethynyl]phenyl]methyl]piperazin-1-yl]-N-(3,3,3-trifluoropropylsulfonyl)benzamide] | 0.0% | 0.0% |
| CCOc1cccc(-c2ccccc2CN2CCN(c3ccc(C(=O)NS(=O)(=O)CCC(F)(F)F)nn3)CC2)c1 [Compound B2N071-01, 6-[4-[[2-(3-Ethoxyphenyl)phenyl]methyl]piperazin-1-yl]-N-(3,3,3-trifluoropropylsulfonyl)pyridazine-3-carboxamide] | 0.0% | 0.0% |
| CCOc1cncc(-c2ccccc2CN2CCN(c3ccc(C(=O)NS(=O)(=O)CCC(F)(F)F)nn3)CC2)c1 [Compound B2N072-01, 6-[4-[[2-(5-Ethoxypyridin-3-yl)phenyl]methyl]piperazin-1-yl]-N-(3,3,3-trifluoropropylsulfonyl)pyridazine-3-carboxamide] | 0.0% | 0.1% |
| CCOc1cccc(-c2ccc(CN3CCN(c4ccc(C(=O)NS(=O)(=O)CCC(F)(F)F)nn4)CC3)cc2C)c1 [Compound B2N073-01, 6-[4-[[4-(3-Ethoxyphenyl)-3-methylphenyl]methyl]piperazin-1-yl]-N-(3,3,3-trifluoropropylsulfonyl)pyridazine-3-carboxamide] | 0.0% | 0.0% |
| CCOc1cncc(-c2ccc(CN3CCN(c4ccc(C(=O)NS(=O)(=O)CCC(F)(F)F)nn4)CC3)cc2C)c1 [Compound B2N074-01, 6-[4-[[4-(5-Ethoxypyridin-3-yl)-3-methylphenyl]methyl]piperazin-1-yl]-N-(3,3,3-trifluoropropylsulfonyl)pyridazine-3-carboxamide] | 0.0% | 0.0% |
| CCOc1cncc(-c2ccc(CN3CCN(c4ccc(C(=O)NS(=O)(=O)CCC(F)(F)F)nn4)CC3)c(CC)c2)c1 [Compound B2N076-01, 6-[4-[[4-(5-Ethoxypyridin-3-yl)-2-ethylphenyl]methyl]piperazin-1-yl]-N-(3,3,3-trifluoropropylsulfonyl)pyridazine-3-carboxamide] | 0.0% | 0.0% |
| CCOc1cccc(-c2ccc(CN3CCN(c4ccc(C(=O)NS(=O)(=O)CCC(F)(F)F)nn4)CC3)cc2F)c1 [Compound B2N077-01, 6-[4-[[4-(3-Ethoxyphenyl)-3-fluorophenyl]methyl]piperazin-1-yl]-N-(3,3,3-trifluoropropylsulfonyl)pyridazine-3-carboxamide] | 0.0% | 0.0% |
| CCOc1cncc(-c2ccc(CN3CCN(c4ccc(C(=O)NS(=O)(=O)CCC(F)(F)F)nn4)CC3)cc2F)c1 [Compound B2N078-01, 6-[4-[[4-(5-Ethoxypyridin-3-yl)-3-fluorophenyl]methyl]piperazin-1-yl]-N-(3,3,3-trifluoropropylsulfonyl)pyridazine-3-carboxamide] | 0.0% | 0.0% |
| CCOc1cccc(-c2ccc(CN3CCN(c4ccc(C(=O)NS(=O)(=O)CCC(F)(F)F)nn4)CC3)c(OC)c2)c1 [Compound B2N079-01, 6-[4-[[4-(3-Ethoxyphenyl)-2-methoxyphenyl]methyl]piperazin-1-yl]-N-(3,3,3-trifluoropropylsulfonyl)pyridazine-3-carboxamide] | 0.0% | 0.0% |
| CCOc1cncc(-c2ccc(CN3CCN(c4ccc(C(=O)NS(=O)(=O)CCC(F)(F)F)nn4)CC3)c(OC)c2)c1 [Compound B2N080-01, 6-[4-[[4-(5-Ethoxypyridin-3-yl)-2-methoxyphenyl]methyl]piperazin-1-yl]-N-(3,3,3-trifluoropropylsulfonyl)pyridazine-3-carboxamide] | 0.0% | 0.0% |
| CCOc1cccc(-c2cc(CN3CCN(c4ccc(C(=O)NS(=O)(=O)CCC(F)(F)F)nn4)CC3)cc(OCC)c2)c1 [Compound B2N081-01] | 0.0% | 0.0% |
| CCOc1cncc(-c2cc(CN3CCN(c4ccc(C(=O)NS(=O)(=O)CCC(F)(F)F)nn4)CC3)cc(OCC)c2)c1 [Compound B2N082-01, 6-[4-[[3-Ethoxy-5-(5-ethoxypyridin-3-yl)phenyl]methyl]piperazin-1-yl]-N-(3,3,3-trifluoropropylsulfonyl)pyridazine-3-carboxamide] | 2.5% | 2.8% |
| CCOc1cccc(-c2cc(CN3CCN(c4ccc(C(=O)NS(=O)(=O)CCC(F)(F)F)nn4)CC3)cc(OC(C)C)c2)c1 [Compound B2N083-01, 6-[4-[[3-(3-Ethoxyphenyl)-5-propan-2-yloxyphenyl]methyl]piperazin-1-yl]-N-(3,3,3-trifluoropropylsulfonyl)pyridazine-3-carboxamide] | 0.0% | 0.0% |
| CCOc1cncc(-c2cc(CN3CCN(c4ccc(C(=O)NS(=O)(=O)CCC(F)(F)F)nn4)CC3)cc(OC(C)C)c2)c1 [Compound B2N084-01] | 0.0% | 0.0% |
| CCOc1cccc(-c2cc(OC)c(CN3CCN(c4ccc(C(=O)NS(=O)(=O)CCC(F)(F)F)nn4)CC3)c(OC)c2)c1 [Compound B2N085-01, 6-[4-[[4-(3-Ethoxyphenyl)-2,6-dimethoxyphenyl]methyl]piperazin-1-yl]-N-(3,3,3-trifluoropropylsulfonyl)pyridazine-3-carboxamide] | 0.0% | 0.0% |
| CCOc1cncc(-c2cc(OC)c(CN3CCN(c4ccc(C(=O)NS(=O)(=O)CCC(F)(F)F)nn4)CC3)c(OC)c2)c1 [Compound B2N086-01, 6-[4-[[4-(5-Ethoxypyridin-3-yl)-2,6-dimethoxyphenyl]methyl]piperazin-1-yl]-N-(3,3,3-trifluoropropylsulfonyl)pyridazine-3-carboxamide] | 0.0% | 0.0% |
| CCOc1cccc(-c2cc(CN3CCN(c4ccc(C(=O)NS(=O)(=O)CCC(F)(F)F)nn4)CC3)cc(C(F)(F)F)c2)c1 [Compound B2N087-01, 6-[4-[[3-(3-Ethoxyphenyl)-5-(trifluoromethyl)phenyl]methyl]piperazin-1-yl]-N-(3,3,3-trifluoropropylsulfonyl)pyridazine-3-carboxamide] | 0.0% | 0.0% |
| CCOc1cncc(-c2cc(CN3CCN(c4ccc(C(=O)NS(=O)(=O)CCC(F)(F)F)nn4)CC3)cc(C(F)(F)F)c2)c1 [Compound B2N088-01, 6-[4-[[3-(5-Ethoxypyridin-3-yl)-5-(trifluoromethyl)phenyl]methyl]piperazin-1-yl]-N-(3,3,3-trifluoropropylsulfonyl)pyridazine-3-carboxamide] | 0.0% | 0.0% |
